“Also recorded” adds a separate entry of the source.
B1: leptin: polypeptide hormone, product of the ob gene; human leptin (Sigma) infused ICV (protein)
chain: VPIQKVQDDTKTLIKTIVTRINDISHTQSVSAKQRVTGLDFIPGLHPILSLSKMDQTLAVYQQVLTSLPSQNVLQIANDLENLRDLLHLLAFSKSCSLPQTSGLQKPESLDGVLEASLYSTEVVALSRLQGSLQDILQQLDVSPEC

Key:
[1] = test system: osteoblasts in calvariae of newborn mice; test: In vivo osteoblast proliferation assay (BrdU labeling, calvariae); set-up: species or system mouse; conditions: newborn wt mice treated daily for 5 days; 40 μg isoproterenol or 4 μg dexamethasone
Method: Specimens were embedded in paraffin and sectioned at 6 μm. Brains were stained with 0.1% cresyl violet using standard procedures. Immunohistochemistry was performed according to standard protocols (see, e.g., Ausubel, 1995, Current Protocols in Molecular Biology, New York). […] BrdU incorporation was detected by immunohistochemistry using Zymed BrdU staining kit (Zymed Laboratories Inc.). Four pups per treatment were analyzed and 10 calvariae sections were counted per animal. NovaRED was used as a chromogenic peroxidase substrate. Sections were counterstained with hematoxylin.

ob/ob mice = test: Long-term isoproterenol treatment of ob/ob mice; format: in vivo, mouse
Method: Wildtype (C57BL/6J) and mutant (C57BL/6J A^y/a, C57BL/6J ob/ob) mice were obtained from the Jackson laboratory and adrenal medullectomized mice from Harlan Tecklad laboratory. Dbh−/− mice were rescued as previously described (Thomas et al., 1998, Neurochem 70:2468-2476). […] Propranolol (Sigma) was added to the drinking water at a concentration of 0.5 g/l. For ICV infusion, a 28-gauge cannula (Brain infusion kit II, Alza) was implanted into the third ventricle as previously described infusing human leptin (Sigma) at 8 ng/hr or MT-II at 125 ng/hr (Phoenix Pharmaceuticals) for 28 days (see, e.g., Ducy et al., 2000, Cell 100: 197-207). The cannula was connected to an osmotic pump (Alza) placed in the dorsal subcutaneous space of the animal. For parabiosis longitudinal incisions were made in the skin and in the peritoneal cavity along one side on each mouse. Edges of the incisions were connected by suture to induce coelioanastomosis. Cross-circulation was quantified by injecting 1 ml/kg 0.25% Evans blue into the tail vein of one mouse of the parabiosed pair. After 30 min. blood was collected from both mice by retroorbital bleeding and the blood exchange rate was calculated according to standard techniques (see, e.g., Harris & Martin, 1984, Am J Physiol 247:R380-386). […] Two weeks after parabiosis a pump delivering leptin ICV in one animal of each pair was implanted. For GTG lesioning, 4-week-old C57BL/6J mice were given a single ip injection of either PBS or GTG (0.5 mg/g). For MSG lesioning, 2 day-old C57BL/6J pups were injected daily subcutaneously with either PBS or MSG (2 mg/g) for 10 days.
Histological analyses were performed on undecalcified sections stained by von Kossa and counterstained by von Gieson (see, e.g., Ducy et al., 2000, Cell 100:197-207). Static and dynamic histomorphometric analyses were performed according to standard protocols (see, e.g., Parfitt et al., 1987, J Bone Miner Res 6:595-610) using the Osteomeasure Analysis System (Osteometrics, Atlanta). Six to 12 animals were analyzed for each group. Statistical significance was assessed by Student's t test.
Primary osteoblast cultures were established as previously described (see, e.g., Ducy et al., 2000, Cell 100: 197-207) and maintained in αMEM/0.1 mg/ml ascorbic acid supplemented with 10% FBS. SaOS-2 were grown in MEM/10% FBS. For cAMP assay confluent cultures were incubated with serum free medium containing 100 μM IBMX (3-isobutyl-1-methylxanthine, Sigma) for 8 minutes before PBS, PTH(1-34) (Bachem), isoproterenol, norepinephrine, phenylephrine (Sigma) or propranolol were added for 5 min. Intracellular cAMP concentration was measured by immunoassay (R&D Systems). For gene expression analyses, primary osteoblasts were treated for 72 hours with appropriate drugs in 0.1% FBS. Hormone serum levels were quantified using immunoassays kits from Peninsula Laboratories (Insulin) or Alpco Diagnostics (leptin). Deoxypyridinoline cross-links and Creatinine were measured in morning urines using the Quidel kits. a1(I) leptin bioactivity was verified by cotransfection of 293 cells expressing ObRb with a STAT3-responsive-luc reporter construct, pSVβgal plasmid and a1(I) leptin expression vector or mock. Twenty-four hours later luciferase and β-galactosidase activities were measured. Data represents ratios of luciferase/β-galactosidase activities, and values are mean of 6 independent transfection experiments.
To address this point one month-old ob/ob mice were treated for 6 weeks with the β-adrenergic agonist isoproterenol or vehicle.

A^y/a mice = test: Leptin ICV infusion in A^y/a mice; format: in vivo, mouse
Method: Wildtype (C57BL/6J) and mutant (C57BL/6J A^y/a, C57BL/6J ob/ob) mice were obtained from the Jackson laboratory and adrenal medullectomized mice from Harlan Tecklad laboratory. Dbh−/− mice were rescued as previously described (Thomas et al., 1998, Neurochem 70:2468-2476). Isoproterenol (Sigma) was injected intraperitoneally (ip) once daily for 6 weeks at 30 mg/kg (wt) or 3 mg/kg (ob/ob). Propranolol (Sigma) was added to the drinking water at a concentration of 0.5 g/l. For ICV infusion, a 28-gauge cannula (Brain infusion kit II, Alza) was implanted into the third ventricle as previously described infusing human leptin (Sigma) at 8 ng/hr or MT-II at 125 ng/hr (Phoenix Pharmaceuticals) for 28 days (see, e.g., Ducy et al., 2000, Cell 100: 197-207). The cannula was connected to an osmotic pump (Alza) placed in the dorsal subcutaneous space of the animal. For parabiosis longitudinal incisions were made in the skin and in the peritoneal cavity along one side on each mouse. Edges of the incisions were connected by suture to induce coelioanastomosis. Cross-circulation was quantified by injecting 1 ml/kg 0.25% Evans blue into the tail vein of one mouse of the parabiosed pair. After 30 min. blood was collected from both mice by retroorbital bleeding and the blood exchange rate was calculated according to standard techniques (see, e.g., Harris & Martin, 1984, Am J Physiol 247:R380-386). […] Two weeks after parabiosis a pump delivering leptin ICV in one animal of each pair was implanted. For GTG lesioning, 4-week-old C57BL/6J mice were given a single ip injection of either PBS or GTG (0.5 mg/g). For MSG lesioning, 2 day-old C57BL/6J pups were injected daily subcutaneously with either PBS or MSG (2 mg/g) for 10 days.

GTG-treated ob/ob mice = test: Leptin ICV infusion in GTG-treated ob/ob mice; format: in vivo, mouse
Method: Wildtype (C57BL/6J) and mutant (C57BL/6J A^y/a, C57BL/6J ob/ob) mice were obtained from the Jackson laboratory and adrenal medullectomized mice from Harlan Tecklad laboratory. Dbh−/− mice were rescued as previously described (Thomas et al., 1998, Neurochem 70:2468-2476). Isoproterenol (Sigma) was injected intraperitoneally (ip) once daily for 6 weeks at 30 mg/kg (wt) or 3 mg/kg (ob/ob). Propranolol (Sigma) was added to the drinking water at a concentration of 0.5 g/l. For ICV infusion, a 28-gauge cannula (Brain infusion kit II, Alza) was implanted into the third ventricle as previously described infusing human leptin (Sigma) at 8 ng/hr or MT-II at 125 ng/hr (Phoenix Pharmaceuticals) for 28 days (see, e.g., Ducy et al., 2000, Cell 100: 197-207). The cannula was connected to an osmotic pump (Alza) placed in the dorsal subcutaneous space of the animal. For parabiosis longitudinal incisions were made in the skin and in the peritoneal cavity along one side on each mouse. Edges of the incisions were connected by suture to induce coelioanastomosis. Cross-circulation was quantified by injecting 1 ml/kg 0.25% Evans blue into the tail vein of one mouse of the parabiosed pair. After 30 min. blood was collected from both mice by retroorbital bleeding and the blood exchange rate was calculated according to standard techniques (see, e.g., Harris & Martin, 1984, Am J Physiol 247:R380-386). […]

[2] = ob/ob mice, 3 mg/kg/day, 6 weeks

| Molecule | number of BrdU positive cells in calvariae compared to control mice (osteoblast proliferation) [1] | Bone Volume (ob/ob mice; ob/ob + isoproterenol) | expression of uncoupling protein 1 (Ucp1) in brown adipose tissue (ob/ob mice; ob/ob mice) | bone formation rate (ob/ob mice; [2]) | bone resorption parameters (ob/ob mice; [2]) | number of osteoblasts per bone surface (ob/ob mice; [2]) | bone mass and bone formation parameters compared with 3 mg/kg/day (ob/ob mice; ob/ob mice, 10 mg/kg/day) | body weight (ob/ob mice; ob/ob mice, 3 and 10 mg/kg/day) | bone mass in the vertebrae and long bones (ob/ob mice; one month-old ob/ob mice, 3 mg/kg/day ip, 6 weeks) | body weight (A^y/a mice; ICV infusion) | bone formation rate (A^y/a mice; long-term ICV infusion) | bone mass / bone volume (A^y/a mice; long-term ICV infusion) | body weight (GTG-treated ob/ob mice) | bone mass (GTG-treated ob/ob mice) |
| --- | --- | --- | --- | --- | --- | --- | --- | --- | --- | --- | --- | --- | --- | --- |
| CC(C)NCC(O)c1ccc(O)c(O)c1 (centres unmarked) [isoproterenol] | nearly two-fold reduction | Low | increased | marked decrease | unaffected | marked decrease | Identical results | without affecting | massive bone loss |  |  |  |  |  |
| B1 |  |  |  |  |  |  |  |  |  | without affecting | decrease | significant decrease; also recorded: decreased | decreased | failed to decrease |

From patent US20060165683A1, “Methods and compositions for control of bone formation via modulation of sympathetic tone” (priority 2001, published 2006)
